Results: patent US20220033407A1, “N-(pyridin-2-ylsulfonyl)cyclopropanecarboxamide Derivatives and their Use in the Treatment of Disease” (NOVARTIS AG, priority 2018, published 2022)
pEC50: −log10 of the molar value.

What was measured:
delF508-CFTR = target: T1, delF508-CFTR (Homo sapiens, UniProt P13569, DEL508-508); test: delF508-CFTR functional activity in primary human bronchial epithelial cells (HBECs), Multi-Transepithelial Clamp Circuit (MTECC-24) assay, equivalent short circuit current; format: cell-based; settings: primary CF HBECs; for MTECC24 CFHBEC-Amax %: relative to reference combination 2 μM 3-(6-(1-(2,2-difluorobenzo[d][1,3]dioxol-5-yl)cyclopropane-1-carboxamido)-3-methylpyridin-2-yl)benzoic acid (24 h) + 0.5 μM N-(2,4-di-tert-butyl-5-hydroxyphenyl)-4-oxo-1,4-dihydroquinoline-3-carboxamide; for pEC50: test compound added 24 h before assay, potentiator (S)-3-amino-6-methoxy-N-(3,3,3-trifluoro-2-hydroxy-2-methylpropyl)-5-(trifluoromethyl)picolinamide present at assay, mean of at least two replicates, read-out: MTECC24 CFHBEC-EC50
T1 construct: functional activity of the CFTR channel (Chloride ion transport) in patient derived primary human bronchial epithelial cells; host or cells: patient-derived primary human bronchial epithelial cells (HBECs), delF508-CFTR
In short: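 Compound acted as corrector on differentiated primary delF508-CFTR bronchial cultures, first 24 h basolaterally, then 45 min both sides before reading. Equivalent short circuit current was recorded during sequential forskolin and potentiator addition. EC50 came from 10-point, 1-in-3 dilution curves against the 0.1% DMSO baseline.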

delF508-CFTR-HRP = target: T2, delF508-CFTR-HRP (Homo sapiens, UniProt P13569, DEL508-508); test: Measurement of delF508-CFTR-HRP surface expression in CFBE41o- cells (HRP luminescence); format: cell-based; settings: for Emax: CFBE41o-, read-out: DelF508-CFTR-HRP Amax %; for pEC50: mean of at least two replicates;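 as to DelF508-CFTR-HRP Amax %: percent efficacy relative to a reference CFTR corrector compound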
T2 construct: expressed in transfected cells
In short: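 EC50 derived by logistic regression of triplicate surface-HRP luminescence, plate-normalized to the lowest-concentration median. Doxycycline (500 ng/mL, 48 h) induced delF508-CFTR-HRP in CFBE41o- cells; compounds then applied 24 h at 37° C, 10 μM top, 3-fold over 10 points.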

T2 sequence (P13569 with tags, fused parts or gaps DEL508-508): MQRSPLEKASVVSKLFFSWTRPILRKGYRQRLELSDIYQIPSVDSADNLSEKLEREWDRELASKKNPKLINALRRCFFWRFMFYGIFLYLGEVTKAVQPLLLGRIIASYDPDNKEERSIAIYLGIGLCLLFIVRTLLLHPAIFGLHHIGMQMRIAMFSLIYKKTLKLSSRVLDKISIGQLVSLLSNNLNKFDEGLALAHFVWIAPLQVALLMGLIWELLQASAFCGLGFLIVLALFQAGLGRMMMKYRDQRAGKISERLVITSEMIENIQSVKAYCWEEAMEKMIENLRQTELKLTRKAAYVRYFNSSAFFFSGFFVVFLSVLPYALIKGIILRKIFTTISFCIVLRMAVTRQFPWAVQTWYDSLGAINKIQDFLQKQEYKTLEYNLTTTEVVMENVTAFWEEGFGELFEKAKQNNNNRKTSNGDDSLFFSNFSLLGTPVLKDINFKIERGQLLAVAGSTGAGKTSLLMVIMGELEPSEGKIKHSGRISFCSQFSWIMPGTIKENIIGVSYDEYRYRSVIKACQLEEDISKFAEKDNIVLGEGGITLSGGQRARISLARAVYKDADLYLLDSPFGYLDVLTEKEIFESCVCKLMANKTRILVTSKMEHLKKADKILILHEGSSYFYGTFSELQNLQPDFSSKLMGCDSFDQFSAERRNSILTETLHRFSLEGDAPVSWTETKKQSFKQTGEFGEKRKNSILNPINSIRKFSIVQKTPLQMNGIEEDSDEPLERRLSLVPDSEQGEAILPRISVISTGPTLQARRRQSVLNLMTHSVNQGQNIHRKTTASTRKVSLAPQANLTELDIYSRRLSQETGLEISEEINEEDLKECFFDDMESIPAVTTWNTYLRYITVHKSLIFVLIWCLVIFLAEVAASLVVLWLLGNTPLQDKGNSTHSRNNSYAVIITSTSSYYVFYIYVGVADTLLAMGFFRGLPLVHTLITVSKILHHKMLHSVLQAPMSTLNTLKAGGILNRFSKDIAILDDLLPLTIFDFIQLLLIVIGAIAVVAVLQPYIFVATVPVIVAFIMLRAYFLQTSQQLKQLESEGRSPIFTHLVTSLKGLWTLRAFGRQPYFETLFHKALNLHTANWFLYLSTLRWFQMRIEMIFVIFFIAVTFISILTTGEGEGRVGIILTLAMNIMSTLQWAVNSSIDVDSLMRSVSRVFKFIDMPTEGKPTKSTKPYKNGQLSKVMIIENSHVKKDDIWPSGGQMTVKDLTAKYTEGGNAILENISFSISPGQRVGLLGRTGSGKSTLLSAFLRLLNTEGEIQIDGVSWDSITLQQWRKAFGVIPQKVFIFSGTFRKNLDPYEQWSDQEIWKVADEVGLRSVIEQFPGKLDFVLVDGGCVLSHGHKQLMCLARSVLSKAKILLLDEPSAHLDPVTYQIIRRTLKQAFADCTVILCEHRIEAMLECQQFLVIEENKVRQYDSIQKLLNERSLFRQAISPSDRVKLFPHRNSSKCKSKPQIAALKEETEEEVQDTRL
T1 sequence (P13569 with tags, fused parts or gaps DEL508-508): as above

| SMILES | MTECC24 CFHBEC-Amax % (delF508-CFTR) [%] | pEC50 (delF508-CFTR) | Emax (delF508-CFTR-HRP) [%] | pEC50 (delF508-CFTR-HRP) |
| --- | --- | --- | --- | --- |
| Cc1ccc(C2CCCC2)c(OC2(C(=O)NS(=O)(=O)c3cccc(NC[C@@H](C)O)n3)CC2)c1 [Example 4-6, (R)-1-(2-Cyclopentyl-5-methylphenoxy)-N-((6-((2-hydroxypropyl)amino)pyridin-2-yl)sulfonyl)cyclopropane-1-carboxamide] | 78 | 7.92 | 537 | 5.47 |
| Cc1ccc(CC(C)C)c(OC2(C(=O)NS(=O)(=O)c3cccc(N4CCC[C@@H](CO)C4)n3)CC2)c1 [Example 4-8, (R)-N-((6-(3-(hydroxymethyl)piperidin-1-yl)pyridin-2-yl)sulfonyl)-1-(2-isobutyl-5-methylphenoxy)cyclopropane-1-carboxamide] | 80 | 7.96 | 388 | 5.66 |
| Cc1ccc(CC(C)C)c(OC2(C(=O)NS(=O)(=O)c3cccc(NC[C@H](C)O)n3)CC2)c1 [Example 4-9, (S)-N-((6-((2-Hydroxypropyl)amino)pyridin-2-yl)sulfonyl)-1-(2-isobutyl-5-methylphenoxy)cyclopropane-1-carboxamide] | 70 | 7.64 | 477 | 5.46 |
| Cc1ccc(CC(C)C)c(OC2(C(=O)NS(=O)(=O)c3cccc(NC[C@@H](C)O)n3)CC2)c1 [Example 4-10, (R)-N-((6-((2-Hydroxypropyl)amino)pyridin-2-yl)sulfonyl)-1-(2-isobutyl-5-methylphenoxy)cyclopropane-1-carboxamide] | 71 | 7.92 | 374 | 5.48 |
| CC(C)Cc1ccc(Cl)cc1OC1(C(=O)NS(=O)(=O)c2cccc(NC[C@H](C)O)n2)CC1 [Example 4-11, (S)-1-(5-Chloro-2-isobutylphenoxy)-N-((6-((2-hydroxypropyl)amino)pyridin-2-yl)sulfonyl)cyclopropane-1-carboxamide] | 66 | 7.46 | 115 | 5.51 |
| O=C(NS(=O)(=O)c1cccc(N2CC(O)C2)n1)C1(Oc2cc(Cl)ccc2C2CCC3(CC2)CC3)CC1 [Example 4-12, 1-(5-Chloro-2-(spiro[2.5]octan-6-yl)phenoxy)-N-((6-(3-hydroxyazetidin-1-yl)pyridin-2-yl)sulfonyl)cyclopropane-1-carboxamide] | 82 | 7.29 | 418 | 5.72 |
| C[C@@H]1CN(c2cccc(S(=O)(=O)NC(=O)C3(Oc4cc(Cl)ccc4C4CCC(C)(C)CC4)CC3)n2)CCO1 [Example 4-13, (R)-1-(5-Chloro-2-(4,4-dimethylcyclohexyl)phenoxy)-N-((6-(2-methylmorpholino)pyridin-2-yl)sulfonyl)cyclopropane-1-carboxamide] | 83 | 7.30 | 591 | 5.85 |
| Cc1ccc(C2CC2)c(OC2(C(=O)NS(=O)(=O)c3cccc(NC[C@H](C)O)n3)CC2)c1 [Example 4-14, (S)-1-(2-Cyclopropyl-5-methylphenoxy)-N-((6-((2-hydroxypropyl)amino)pyridin-2-yl)sulfonyl)cyclopropane-1-carboxamide] | 57 | 6.96 | 119 | 5.44 |
| C[C@H](O)CNc1cccc(S(=O)(=O)NC(=O)C2(Oc3cc(Cl)ccc3C3CC3)CC2)n1 [Example 4-15, (S)-1-(5-Chloro-2-cyclopropylphenoxy)-N-((6-((2-hydroxypropyl)amino)pyridin-2-yl)sulfonyl)cyclopropane-1-carboxamide] | 35 | 7.16 | 114 | 5.38 |
| Cc1ccc(C2(C)CC2)c(OC2(C(=O)NS(=O)(=O)c3cccc(NC[C@H](C)O)n3)CC2)c1 [Example 4-16, (S)-N-((6-((2-Hydroxypropyl)amino)pyridin-2-yl)sulfonyl)-1-(5-methyl-2-(1-methylcyclopropyl)phenoxy)cyclopropane-1-carboxamide] | 48 | 8.05 | 113 | 5.46 |
| Cc1ccc(C2(C(F)(F)F)CC2)c(OC2(C(=O)NS(=O)(=O)c3cccc(N4CC(C)(O)C4)n3)CC2)c1 [Example 4-17, N-((6-(3-Hydroxy-3-methylazetidin-1-yl)pyridin-2-yl)sulfonyl)-1-(5-methyl-2-(1-(trifluoromethyl)cyclopropy)phenoxy)cyclopropane-1-carboxamide] | 55 | 7.12 | 156 | 5.39 |
| Cc1ccc(C2CCCOC2)c(OC2(C(=O)NS(=O)(=O)c3cccc(N4CCC[C@@H](CO)C4)n3)CC2)c1 (stereo partly drawn) [Example 4-20, N-((6-((R)-3-(hydroxymethyl)piperidin-1-yl)pyridin-2-yl)sulfonyl)-1-(5-methyl-2-(tetrahydro-2H-pyran-3-yl)phenoxy)cyclopropane-1-carboxamide] | 54 | 6.53 | 202 | 5.49 |
| Cc1ccc(C2CC=CCC2)c(OC2(C(=O)NS(=O)(=O)c3cccc(N4CC(C)(O)C4)n3)CC2)c1 (stereo not drawn) [Example 4-22, N-((6-(3-hydroxy-3-methylazetidin-1-yl)pyridin-2-yl)sulfonyl)-1-((4-methyl-1′,2′,3′,6′-tetrahydro-[1,1′-biphenyl]-2-yl)oxy)cyclopropanecarboxamide] | 62 | 7.92 | 453 | 5.44 |

The next lines start with the values.

| MTECC24 CFHBEC-Amax % (delF508-CFTR) [%] | pEC50 (delF508-CFTR) | Emax (delF508-CFTR-HRP) [%] | pEC50 (delF508-CFTR-HRP) | SMILES |
| --- | --- | --- | --- | --- |
| 88 | 7.80 | 503 | 5.71 | Cc1ccc(-c2cccc(C(F)(F)F)c2)c(OC2(C(=O)NS(=O)(=O)c3cccc(N4CC[C@H](O)C4)n3)CC2)c1 [Example 5-1, (S)-N-((6-(3-Hydroxypyrrolidin-1-yl)pyridin-2-yl)sulfonyl)-1-((4-methyl-3′-(trifluoromethyl)-[1,1′-biphenyl]-2-yl)oxy)cyclopropane-1-carboxamide] |
| 62 | 7.00 | 313 | 5.80 | O=C(NS(=O)(=O)c1cccc(N2CC[C@H](O)C2)n1)C1(Oc2cc(Cl)ccc2-c2cccc(C(F)(F)F)c2)CC1 [Example 5-2, (S)-1-((4-Chloro-3′-(trifluoromethyl)-[1,1′-biphenyl]-2-yl)oxy)-N-((6-(3-hydroxypyrrolidin-1-yl)pyridin-2-yl)sulfonyl)cyclopropane-1-carboxamide] |
| 94 | 7.15 | 242 | 5.69 | O=C(NS(=O)(=O)c1cccc(N2CC[C@H](O)C2)n1)C1(Oc2cc(C(F)(F)F)ccc2-c2cccc(C(F)(F)F)c2)CC1 [Example 5-5, (S)-1-((3′,4-Bis(trifluoromethyl)-[1,1′-biphenyl]-2-yl)oxy)-N-((6-(3-hydroxypyrrolidin-1-yl)pyridin-2-yl)sulfonyl)cyclopropane-1-carboxamide] |
| 57 | 8.22 | 371 | 5.61 | Cc1ccc(-c2cccc(OC(F)(F)F)c2)c(OC2(C(=O)NS(=O)(=O)c3cccc(N4CC(C)(O)C4)n3)CC2)c1 [Example 5-8, N-((6-(3-Hydroxy-3-methylazetidin-1-yl)pyridin-2-yl)sulfonyl)-1-((4-methyl-3′-(trifluoromethoxy)-[1,1′-biphenyl]-2-yl)oxy)cyclopropane-1-carboxamide] |
| 87 | 7.12 | 298 | 5.51 | Cc1ccc(-c2cccc(C(F)F)c2)c(OC2(C(=O)NS(=O)(=O)c3cccc(N4CC[C@H](O)C4)n3)CC2)c1 [Example 5-9, (S)-1-((3′-(Difluoromethyl)-4-methyl-[1,1′-biphenyl]-2-yl)oxy)-N-] |
| 114 | 7.59 | 416 | 5.92 | Cc1ccc(-c2ccc(C(F)(F)F)cc2)c(OC2(C(=O)NS(=O)(=O)c3cccc(N4CC[C@H](O)C4)n3)CC2)c1 [Example 5-10, (S)—N-((6-(3-Hydroxypyrrolidin-1-yl)pyridin-2-yl)sulfonyl)-1-((4-methyl-4′-(trifluoromethyl)-[1,1′-biphenyl]-2-yl)oxy)cyclopropane-1-carboxamide] |
| 68 | 7.70 | 371 | 5.66 | Cc1ccc(-c2cccc(C(F)(F)F)c2)c(OC2(C(=O)NS(=O)(=O)c3cccc(N4CC[C@@H](O)C4)n3)CC2)c1 [Example 5-11, (R)—N-((6-(3-Hydroxypyrrolidin-1-yl)pyridin-2-yl)sulfonyl)-1-((4-methyl-3′-(trifluoromethyl)-[1,1′-biphenyl]-2-yl)oxy)cyclopropane-1-carboxamide] |
| 43 | 7.30 | 196 | 5.67 | Cc1ccc(-c2ccccc2C(F)(F)F)c(OC2(C(=O)NS(=O)(=O)c3cccc(N4CC[C@H](O)C4)n3)CC2)c1 [Example 5-14, (S)—N-((6-(3-Hydroxypyrrolidin-1-yl)pyridin-2-yl)sulfonyl)-1-((4-methyl-2′-(trifluoromethyl)-[1,1′-biphenyl]-2-yl)oxy)cyclopropane-1-carboxamide] |
